Counter-ions that a name gives are not always drawn. Like-named read-outs stand apart in the source and are kept apart here.
Tested on: genetisch hypertonen Ratten
Test: Antihypertensive effect (systolic blood pressure, tail cuff) in spontaneously hypertensive rats after oral dosing
Type: in vivo, Ratte
Details: Rattus norvegicus; for change in vivo at 25 µmol/kg: 25 µmol/kg p.o. once daily on four consecutive days; for change in vivo at 5 µmol/kg: 5 µmol/kg p.o. once daily on four consecutive days; for change in vivo at 10 µmol/kg: 10 µmol/kg p.o. once daily on four consecutive days
Excerpt: Die antihypertensive Wirksamkeit der erfindungsgemäßen Verbindungen kann am Modell der spontan hypertonen Ratte nachgewiesen werden.
Zur Bestimmung der antihypertensiven Wirkung werden die unten aufgeführten Verbindungen in den angegebenen Dosen an vier aufeinander folgenden Tagen an je 6 männlichen Ratten (Stamm SHR/N/Ibm/Bm, 250-350 g) mit genetisch bedingtem Hochdruck (systolischer Blutdruck > 180 mmHg) täglich einmal mittels Schlundsonde verabfolgt. Die Messung des Blutdrucks erfolgt jeweils 6 und gegebenenfalls 2 oder 24 Studnen nach Substanzgabe.
Die Blutdruckmessung wird in einer Wärmekammer bei 36°C vorgenommen, um eine bessere Durchblutung der Schwanzarterie zu erreichen. Hierzu werden die Tiere in perforierte Lochblechkäfige verbracht und 20 - 40 Min. nach Beginn der Aufwärmung gemessen. Zur Messung des systolischen arteriellen Drucks wird eine ringförmige Manschette mit aufblasbarer Gummimembran zur Unterbindung der Durchblutung und ein ringförmiger Piezokristallaufnehmer zur Erfassung der Pulswellen auf den Schwanz aufgeschoben. Nach erfolgter Unterbindung des Blutstroms in der Schwanzarterie wird der Manschettendruck kontinuierlich reduziert. Die Wiederkehr der Pulswellen bei Druckablassen wird automatisch als systolischer Blutdruck erkannt und ausgedruckt (Bühler, R. er al." Microprocessor-based automation of blood pressure measurement in the conscious rat. Proceedings of the 4th international symposium on rats with spontaneous hypertension and related studies, Rascher, R. et al. (Eds.), Schattauer Verlag, Stuttgart, New York, 1982, S. 410-413). Pulssignale und Druckverlauf werden zur Auswertung graphisch aufgezeichnet.
Zur Gewöhnung an den Meßvorgang werden die Tiere vor Substanzprüfung 14 Tage trainiert. In der zweiten Trainingswoche werden Blutdruck-Vorwerte erhoben. Tiergruppen, die Substanz erhalten, werden gegen eine Kontrollgruppe geprüft.
In der anschließenden Tabelle werden die untersuchten Verbindungen durch laufende Nummern gekennzeichnet, die mit den jewiligen Beispielnummern übereinstimmen.
Tabelle I gibt für die Vertreter der erfindungsgemäßen Verbindungen die prozentuale Senkung des Blutdrucks (BP) nach oraler Verabreichung bei der Ratte wieder.

[1] = 2h after dosing, mean of days 1+4, male SHR/N/Ibm/Bm rats, N=6, read-out: BP (% Änderung vs. Kontrolle), Mittelwert für Meßzeitpunkte: Stunden nach Gabe (Tage) 2h (1.+4.Tag)
[2] = 6h after dosing, mean of days 1-4, male SHR/N/Ibm/Bm rats, N=6, read-out: BP (% Änderung vs. Kontrolle), Mittelwert für Meßzeitpunkte: Stunden nach Gabe (Tage) 6h (1.-4.Tag)
[3] = 24h after dosing, mean of days 1+3, male SHR/N/Ibm/Bm rats, N=6, read-out: BP (% Änderung vs. Kontrolle), Mittelwert für Meßzeitpunkte: Stunden nach Gabe (Tage) 24h (1.+3.Tag)

SMILES | change in vivo at 25 µmol/kg [1] | change in vivo at 25 µmol/kg [2] | change in vivo at 25 µmol/kg [3] | change in vivo at 10 µmol/kg [1] | change in vivo at 10 µmol/kg [2] | change in vivo at 10 µmol/kg [3] | further results
CC1=C(C(=O)OCCCN2CCC(c3ccccc3)CC2)C(c2cccc([N+](=O)[O-])c2)C(C(=O)O[C@@H]2C[C@H](C)CC[C@H]2C(C)C)=C(C)N1 (single isomer, unassigned) [Beispiel 2b, 1,4-Dihydro-2,6-dimethyl-4-(3-nitrophenyl)-pyridin-3,5-dicarbonsäure-3-(-)-menthyl-5-[3-(4-phenylpiperidyl-1)-propyl]-ester-hydrochlorid] | -36% | -33% | -16% | – | – | – | –
COc1ccccc1N1CCN(CCCOC(=O)C2=C(C)NC(C)=C(C(=O)O[C@@H]3C[C@H](C)CC[C@H]3C(C)C)C2c2cccc([N+](=O)[O-])c2)CC1 (single isomer, unassigned) [Beispiel 3b, 1,4-Dihydro-2,6-dimethyl-4-(3-nitrophenyl)-pyridin-3,5-dicarbonsäure-3-(-)-menthyl-5-{3-[4-(2-methoxyphenyl)-1-piperazinyl]-propyl}-ester-fumarat] | -23% | -36% | -17% | – | – | – | –
CC1=C(C(=O)OCCN2CCN(c3ccccc3)CC2)C(c2cccc([N+](=O)[O-])c2)C(C(=O)O[C@@H]2C[C@H](C)CC[C@H]2C(C)C)=C(C)N1 (single isomer, unassigned) [Beispiel 4b, 1,4-Dihydro-2,6-dimethyl-4-(3-nitrophenyl)-pyridin-3,5-dicarbonsäure-3-(-)-menthyl-5-[2-(4-phenyl-1-piperazinyl)-ethyl]ester-fumarat] | – | – | – | – | – | – | change in vivo at 5 µmol/kg [1]: -18%; change in vivo at 5 µmol/kg [2]: -16%; change in vivo at 5 µmol/kg [3]: 4%
CC1=C(C(=O)OCCN2CCN(c3ccccn3)CC2)C(c2cccc([N+](=O)[O-])c2)C(C(=O)O[C@@H]2C[C@H](C)CC[C@H]2C(C)C)=C(C)N1 (single isomer, unassigned) [Beispiel 5b, 1,4-Dihydro-2,6-dimethyl-4-(3-nitropheny)-pyridin-3,5-dicarbonsäure-3-(-)-menthyl-5-{2-[4-(2-pyridyl)-1-piperazinyl]-ethyl}-ester-fumarat] | – | – | – | -20% | -12% | -10% | –
CC1=C(C(=O)OCCCN(C)Cc2ccccc2)C(c2cccc([N+](=O)[O-])c2)C(C(=O)O[C@@H]2C[C@H](C)CC[C@H]2C(C)C)=C(C)N1 (single isomer, unassigned) [Beispiel 6] | -27% | -33% | -10% | – | – | – | –
CC1=C(C(=O)OCCCN2CCC(C(=O)c3ccc(F)cc3)CC2)C(c2cccc([N+](=O)[O-])c2)C(C(=O)O[C@@H]2C[C@H](C)CC[C@H]2C(C)C)=C(C)N1 (single isomer, unassigned) [Beispiel 7, 1,4-Dihydro-2,6-dimethyl-4-(3-nitrophenyl)-pyridin-3,5-dicarbonsäure-3-(-)-menthyl-5-{3-[4-(4-fluorbenzoyl)-piperidyl-1]-propyl}-ester-hydrochlorid] | – | – | – | -12% | -11% | 5% | –
COc1ccccc1N1CCN(CCOC(=O)C2=C(C)NC(C)=C(C(=O)O[C@@H]3C[C@H](C)CC[C@H]3C(C)C)C2c2cccc([N+](=O)[O-])c2)CC1 (single isomer, unassigned) [Beispiel 9, 1,4-Dihydro-2,6-dimethyl-4-(3-nitrophenyl)-pyridin-3,5-dicarbonsäure-3-(-)-menthyl-5-{2-[4-(2-methoxyphenyl)1-piperazinyl]-ethyl}-ester] | – | – | – | -22% | -32% | -4% | –
CC1=C(C(=O)OCCCN2CCN(c3ccccc3)CC2)C(c2cccc([N+](=O)[O-])c2)C(C(=O)O[C@@H]2C[C@H](C)CC[C@H]2C(C)C)=C(C)N1 (single isomer, unassigned) [Beispiel 10, 1,4-Dihydro-2,6-dimethyl-4-(3-nitrophenyl)-pyridin-3,5-dicarbonsäure-3-(-)-menthyl-5-[3-(4-phenyl-1-piperazinyl)-propyl]-ester-fumarat] | -34% | -34% | -6% | – | – | – | –
CCOc1ccccc1N1CCN(CCCOC(=O)C2=C(C)NC(C)=C(C(=O)O[C@@H]3C[C@H](C)CC[C@H]3C(C)C)C2c2cccc([N+](=O)[O-])c2)CC1 (single isomer, unassigned) [Beispiel 11, 1,4-Dihydro-2,6-dimethyl-4-(3-nitrophenyl)-pyridin-3,5-dicarbonsäure-3-(-)-menthyl-5-{3-[4-(2-ethoxyphenyl)-1-piperazinyl]-propyl}ester-fumarat] | – | – | – | -21% | -26% | -10% | –
CC1=C(C(=O)OCCCN2CCN(c3ccccn3)CC2)C(c2cccc([N+](=O)[O-])c2)C(C(=O)O[C@@H]2C[C@H](C)CC[C@H]2C(C)C)=C(C)N1 (single isomer, unassigned) [Beispiel 12, 1,4-Dihydro-2,6-dimethyl-4-(3-nitrophenyl)-pyridin-3,5-dicarbonsäure-3-(-)-menthyl-5-{3-[4-(2-pyridyl)-1-piperazinyl]-propyl}-ester-fumarat] | – | – | – | -17% | -20% | -1% | –
CC1=C(C(=O)OCCCN2CCN(C(c3ccccc3)c3ccccc3)CC2)C(c2cccc([N+](=O)[O-])c2)C(C(=O)O[C@@H]2C[C@H](C)CC[C@H]2C(C)C)=C(C)N1 (single isomer, unassigned) [Beispiel 13, 1,4-Dihydro-2.6-dimethyl-4-(3-nitrophenyl)-pyridin-3,5-dicarbonsäure-3-(-)-menthyl-5-[3-(4-benzhydryl-1-piperazinyl)-propyl]-ester-semifumarat] | -30% | -40% | -35% | – | – | – | –
CC1=C(C(=O)OCCCN2CCN(c3cccc(C(F)(F)F)c3)CC2)C(c2cccc([N+](=O)[O-])c2)C(C(=O)O[C@@H]2C[C@H](C)CC[C@H]2C(C)C)=C(C)N1 (single isomer, unassigned) [Beispiel 14, 1,4-Dihydro-2,6-dimethyl-4-(3-nitrophenyl)-pyridin-3,5-dicarbonsäure-3-(-)-menthyl-5-{3-[4-(3-trifluormethylphenyl}-1-piperazinyl]-propyl}-ester-fumarat] | -42% | -43% | -21% | – | – | – | –
COc1cccc(N2CCN(CCCOC(=O)C3=C(C)NC(C)=C(C(=O)O[C@@H]4C[C@H](C)CC[C@H]4C(C)C)C3c3cccc([N+](=O)[O-])c3)CC2)c1 (single isomer, unassigned) [Beispiel 15, 1,4-Dihydro-2,6-dimethyl-4-(3-nitrophenyl)-pyridin-3,5-dicarbonsäure-3-(-)-menthyl-5-{3-[4-(3-methoxyphenyl)-1-piperazinyl]-propyl}-ester-fumarat] | – | – | – | -14% | -7% | -4% | –

Source: patent publication EP0244595A2, “Dihydropyridine derivatives, process for their preparation and their use as pharmaceutical compounds” (Byk Gulden Lomberg Chemische Fabrik GmbH, priority 1986, dated 1987)
